{
  "source": "ChEMBL document CHEMBL1148051",
  "about": "“Antibiotic activity and absolute configuation of 8S-heptadeca-2(Z),9(Z)-diene-4,6-diyne-1,8-diol from Bupleurum salicifolium” (1994)",
  "key": {"[1]": {"system": "Staphylococcus aureus", "experiment": "Antibacterial activity against Staphylococcus aureus ATCC 6538 by rotary shaker method", "format": "functional"}, "[2]": {"system": "Candida albicans", "experiment": "Antifungal activity against Candida albicans UBC1", "format": "functional, organism-based"}, "[3]": {"system": "Pseudomonas aeruginosa", "experiment": "Antibacterial activity against Pseudomonas aeruginosa AK 958", "format": "functional, organism-based"}, "[4]": {"system": "Escherichia coli", "experiment": "Antibacterial activity against Escherichia coli CECT 99", "format": "functional, organism-based"}, "[5]": {"system": "Salmonella", "experiment": "Antibacterial activity against Salmonella sp. CECT 456", "format": "functional, organism-based"}, "[6]": {"system": "Bacillus subtilis", "experiment": "Antibacterial activity against Bacillus subtilis CECT 39 by rotary shaker method", "format": "functional"}},
  "note": "Calls of active or inactive are those of the source. The rule behind the calls is not given here.",
  "data": [
    {"smiles": "CCCCCCC/C=C\\[C@H](O)C#CC#C/C=C\\CO", "values": [
      {"measurement": "MIC", "setting": "[1]", "value": 10, "unit": "µg/mL"},
      {"measurement": "Activity", "setting": "[2]", "value": "inactive"},
      {"measurement": "Activity", "setting": "[3]", "value": "inactive"},
      {"measurement": "Activity", "setting": "[4]", "value": "inactive"},
      {"measurement": "Activity", "setting": "[5]", "value": "inactive"},
      {"measurement": "MIC", "setting": "[6]", "value": 10.5, "unit": "µg/mL"}
    ]}
  ]
}
